Experimental data published in article PMC3913682, “A Monoclonal Antibody TrkB Receptor Agonist as a Potential Therapeutic for Huntington’s Disease” (PLoS ONE, 2014).

Columns and labels:
[1] = system: Trk null-NFAT-bla CHO-K1 cells; test: CellSensor Trk null-NFAT-bla CHO-K1 reporter gene assay; format: cell-based; settings: Cricetulus griseus, Figure 2D, 5 hours
Protocol: The assays were configured using Invitrogen CHO-K1 cell lines stably expressing a β-lactamase gene under the control of a NFAT promoter region and the relevant Trk (A, B or C) receptor (except for the Trk null cell line). The activity of the β-lactamase enzyme was quantified via FRET with a fluorescent substrate containing a β-lactam ring, according to manufacturer’s provided protocol. All CellSensor® NFAT-bla CHO-K1 cell lines were seeded into black 384w assay plates in CellSensor® plating media (growth media without antibiotics) at 5,000 cells in a volume of 25 µL per well; cells were incubated at 37°C, 5% CO2 overnight. Then, the assay plating media was removed and replaced with 32 µL of assay media (plating media without serum) and returned to the incubator for 1 hour. […] Levels of β-lactamase activity were then quantified by measuring the fluorescent intensity ratio between ^EX400nm/^EM535nm and ^EX400nm/^EM460nm and cytotoxicity quantified by measuring the fluorescence intensity at ^EX590nm/^EM665nm using a Perkin Elmer EnVision.

[2] = Solubility assay under CellSensor assay conditions (HPLC-UV); format: physicochemical; settings: for Concentration @ t = 0: 0 hours; for Concentration @ t = 0 / Concentration @ t = 3 / Concentration @ t = 7: assay buffer, 0.5% DMSO; for Concentration @ t = 3: 3 hours; for Concentration @ t = 7: 7 hours
Protocol: To align with the functional data, all compound samples and dilutions were prepared using the CellSensor® assay conditions that include: assay buffer, plates, sample volumes and the same timeframe. The assay incubation time was 7 hours. 0, 3 and 7 hour samples were analysed, in triplicate, in the final assay buffer (DMEM/Glutamax + NEAA + 20 mM Hepes pH7.4 + 0.01% BSA, final DMSO concentration 0.5%) at nominal compound concentrations of 5, 20 and 50 µM. […] The 7 and 3 hour samples were prepared at times which allowed simultaneous filtering and sample analysis.

TrkB [3] = molecular target: T1, TrkB (Homo sapiens, UniProt Q16620); set-up: method as in PMID 19549602; settings: hippocampal neurons; cited from earlier work
TrkB [4] = molecular target: T1, TrkB; test: CellSensor TrkB-NFAT-bla CHO-K1 reporter gene assay (agonist, antagonist, PAM modes); format: cell-based; set-up: host or cells: CHO-K1; settings: Figure 6B; in presence of ~EC20 BDNF (40 pM)
Protocol: The assays were configured using Invitrogen CHO-K1 cell lines stably expressing a β-lactamase gene under the control of a NFAT promoter region and the relevant Trk (A, B or C) receptor (except for the Trk null cell line). The activity of the β-lactamase enzyme was quantified via FRET with a fluorescent substrate containing a β-lactam ring, according to manufacturer’s provided protocol. All CellSensor® NFAT-bla CHO-K1 cell lines were seeded into black 384w assay plates in CellSensor® plating media (growth media without antibiotics) at 5,000 cells in a volume of 25 µL per well; cells were incubated at 37°C, 5% CO2 overnight. Then, the assay plating media was removed and replaced with 32 µL of assay media (plating media without serum) and returned to the incubator for 1 hour. […] Test compounds were added (4 µL) and cells were returned to the incubator for 1 hour; dependent on assay mode (agonist, antagonist or positive allosteric modulator) assay media alone (agonist mode), assay media containing EC80 neurotrophin (antagonist mode) or assay media containing EC20 neurotrophin (PAM mode) were then added to the cells (4 µL) for a further 4 hour incubation. ToxBLAzer detection reagent was reconstituted according to the manufacturer’s instructions and 8 µL/well added to the assay plates, these were then incubated at room temperature protected from light for 2 hours. Levels of β-lactamase activity were then quantified by measuring the fluorescent intensity ratio between ^EX400nm/^EM535nm and ^EX400nm/^EM460nm and cytotoxicity quantified by measuring the fluorescence intensity at ^EX590nm/^EM665nm using a Perkin Elmer EnVision.

TrkB [5] = molecular target: T1, TrkB; set-up: host or cells: CHO-K1; settings: cited from earlier work
striatal neurons = test: Primary neuronal mHTT-induced cell death assay (cortico-striatal co-culture); format: cell-based, rat; settings: for Protection of striatal neurons from mHTT-induced cell death (in words): Figure 7A
Source text: Cortical and striatal neurons were isolated from E18 rat embryos and separately transfected with a HTT exon1 fragment containing 73 CAG repeats (HTTN90Q73), together with a plasmid encoding for either a green AcGFP or a red AsRed fluorescent reporter before being plated on glial cells and treated with candidate pharmacological agents. After 5 days in culture, the number of fluorescent cells remaining was counted using an automated high content imaging and analysis platform (GE Healthcare InCell 2000) and any changes in neuronal survival quantified.

[6] = system: TrkB, AKT and ERK1/2 phosphorylation; test: Western blot of TrkB, AKT and ERK1/2 phosphorylation in TrkB-NFAT-bla CHO-K1 cells; format: cell-based; settings: LM22A-4 at low (10 µM) and high (83 µM), N-acetyl serotonin at high (83 µM) concentration; Figure 6E
Source text: (§1) Clarified cell lysates were resolved by SDS-PAGE, blotted onto nitrocellulose membranes and immunoprobed with the relevant primary and secondary antibody combinations. Anti-pTrkB Tyr^516 (4619), anti-pTrkB Tyr^706/707 (4621), anti-pTrkB, Tyr^816 (4168), anti-pERK1/2 […], anti-pAKT […], anti-TrkB (4603), anti-AKT (4685) and anti-ERK1/2 (4695) were sourced from Cell Signalling Technologies. Anti-GAPDH (IMG-5143A) was obtained from Imgenex; Goat anti-rabbit HRP conjugate (PO448) and Goat anti-mouse HRP conjugate (PO447) were sourced from Dako. Goat anti-mouse 800CW conjugate and Goat anti-rabbit 680 conjugate were sourced from LI-COR. Immunoreactive signals were detected using enhanced chemiluminescence reagent (Amersham) or using the Odyssey infra-red reader.

TrkB phosphorylation = test: Western blot of TrkB phosphorylation in rat primary cortico-striatal co-cultures; format: cell-based; settings: 15 minutes; non-transfected; Figure 7B, C
Source text: as §1

TrkB [7] = system: TrkB; set-up: method as in PMID 20407211; settings: hippocampal neurons; cited from earlier work
[8] = system: Hippocampal HT-22 (TrkB-null cell line); set-up: method as in PMID 21651962; settings: cited from earlier work

T1 sequence (Q16620 32-822): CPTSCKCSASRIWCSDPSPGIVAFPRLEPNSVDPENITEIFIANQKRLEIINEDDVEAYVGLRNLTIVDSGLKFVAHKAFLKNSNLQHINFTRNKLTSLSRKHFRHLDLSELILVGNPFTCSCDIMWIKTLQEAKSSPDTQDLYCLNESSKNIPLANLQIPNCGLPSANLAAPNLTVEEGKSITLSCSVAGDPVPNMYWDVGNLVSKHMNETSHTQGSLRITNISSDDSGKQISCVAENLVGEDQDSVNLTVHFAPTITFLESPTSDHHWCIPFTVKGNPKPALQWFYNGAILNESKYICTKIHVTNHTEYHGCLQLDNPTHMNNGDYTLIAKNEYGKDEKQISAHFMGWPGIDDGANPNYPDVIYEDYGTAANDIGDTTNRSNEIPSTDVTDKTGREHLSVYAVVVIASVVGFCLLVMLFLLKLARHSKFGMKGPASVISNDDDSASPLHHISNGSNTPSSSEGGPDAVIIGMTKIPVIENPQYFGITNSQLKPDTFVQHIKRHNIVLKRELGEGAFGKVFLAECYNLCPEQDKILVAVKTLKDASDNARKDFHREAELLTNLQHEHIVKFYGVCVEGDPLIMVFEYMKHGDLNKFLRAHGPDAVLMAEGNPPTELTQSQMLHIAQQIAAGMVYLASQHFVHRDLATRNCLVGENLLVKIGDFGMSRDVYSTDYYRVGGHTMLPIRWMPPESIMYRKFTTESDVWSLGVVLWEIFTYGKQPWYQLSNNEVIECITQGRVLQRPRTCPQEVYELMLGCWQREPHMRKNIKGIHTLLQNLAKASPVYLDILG

Concentration @ t = 0 ([2]; nominal concentration 5 µM) [µM]	Concentration @ t = 3 ([2]; nominal concentration 5 µM) [µM]	Concentration @ t = 7 ([2]; nominal concentration 5 µM) [µM]	Concentration @ t = 0 ([2]; nominal concentration 20 µM) [µM]	Concentration @ t = 3 ([2]; nominal concentration 20 µM) [µM]	Concentration @ t = 7 ([2]; nominal concentration 20 µM) [µM]	Concentration @ t = 0 ([2]; nominal concentration 50 µM) [µM]	Concentration @ t = 3 ([2]; nominal concentration 50 µM) [µM]	Concentration @ t = 7 ([2]; nominal concentration 50 µM) [µM]	Compound	Published in vitro activity (in words) (TrkB [5])	Published in vitro activity: Activity (TrkB [5]) [nM]	Protection of striatal neurons from mHTT-induced cell death (in words) (striatal neurons)	Induction of TrkB phosphorylation (in words) (TrkB phosphorylation)	other results
									C/C=C(/C)C(=O)O[C@H]1C(C)=C2[C@H]([C@@H]1OC(=O)CCCCCCC)[C@@](C)(OC(C)=O)C[C@H](OC(=O)CCC)[C@@]1(O)[C@H]2OC(=O)[C@@]1(C)O [Thapsigargin]					EC50 [1]: 1.6 nM
3.7	4.3	3.2	7.6	7.1	5.9	33	27	27	CN(C)CCC=C1c2ccccc2CCc2ccccc21 [Amitriptyline]	Neuronal TrkA/B agonist; Neuroprotective	10 to 250			Potency relative to the cognate neurotrophin (less potent) (TrkB [3]): ~100 fold; PAM activity, NFAT reporter gene assay, PAM mode (in words) (TrkB [4]): concentration-dependent TrkB inhibition
7.2	7.8	11	17	17	20	59	58	64	O=C(NCCO)c1cc(C(=O)NCCO)cc(C(=O)NCCO)c1 [LM22A-4]	TrkB agonist; Neuroprotective	0.5 to 500	failed to mimic the ability of BDNF	failed to mimic the ability of BDNF	Basal phospho-ERK1/2 immunoreactive bands [6]: absence of immunoreactive bands; Induction of TrkB-Tyr516 phosphorylation (TrkB [7]): ~30 % of the efficacy of BDNF
0.49	0.24	2.3	3.0	1.9	5.2	13	10	13	O=c1cc(-c2ccccc2)oc2c(O)c(O)ccc12 [7,8-dihydroxyflavone]	Neuronal TrkB agonist; Promotes neurogenesis	10 to 250	failed to mimic the ability of BDNF	failed to mimic the ability of BDNF	Concentrations at which toxicity was evident (striatal neurons; rat cortico-striatal co-culture): ≥ 20 µM; Compound remaining in solution ([2]; beyond the tested lower concentration of 5 µM, NFAT assay solutions): ~20%; Concentrations showing toxicity effects, HT-22 cell viability [8]: above 20 µM
